Laboratory results taken from ChEMBL document CHEMBL4765295, “Synthesis, pharmacological profile and 2D-QSAR studies of curcumin-amino acid conjugates as potential drug candidates” (Eur J Med Chem, 2020).
Where “and” joins values, the source holds several entries; their conditions need not be identical. Equal values may be shown once.

How the values were obtained:
Splenocyte [1] = test: Immunomodulatory activity in Swiss albino mouse splenocytes assessed as cell viability at 10 uM by measuring inhibition of stimulation index incubated for 72 hrs in presence of mitogenic stimulus phytohaemagglutinin by MTT assay relative to indomethacin; type: functional; conditions: read-out: Activity
Splenocyte [2] = test: Immunomodulatory activity in Swiss albino mouse splenocytes assessed as cell viability at 10 uM by measuring stimulation index incubated for 72 hrs in presence of mitogenic stimulus phytohaemagglutinin by MTT assay (reference value: 1.00 +/- 0.24); type: functional
[3] = Toxicity in albino mouse assessed as induction of toxic symptoms at 50 to 100 mg/kg, ip measured after 24 hrs; type: organism-based; conditions: in vivo, dose 50-100 mg/kg
Rattus norvegicus [4] = test: Anti-inflammatory activity in Wistar rat assessed as inhibition of carrageenan-induced paw edema at 10 mg/kg, ip pretreated for 1 hr followed by carrageenan challenge and measured after 3 hr relative to control (reference value: 0.00 +/-0.1 %); type: functional; conditions: time 4 hrs
Rattus norvegicus [5] = test: Anti-inflammatory activity in Wistar rat assessed as inhibition of carrageenan-induced paw edema at 10 mg/kg, ip pretreated for 1 hr followed by carrageenan challenge and measured after 4 hr relative to indomethacin; type: functional; conditions: time 5 hrs
Rattus norvegicus [6] = test: Anti-inflammatory activity in Wistar rat assessed as inhibition of carrageenan-induced paw edema at 10 mg/kg, ip pretreated for 1 hr followed by carrageenan challenge and measured after 2 hr relative to control (reference value: 0.00 +/-0.03 %); type: functional; conditions: time 3 hrs
Mus musculus [7] = test: Analgesic activity in albino mouse assessed protection against acetic acid-induced abdominal writhing at 10 mg/kg, ip pretreated for 1 hr followed by acetic acid challenge and measured starting 5 mins post acetic acid challenge for 10 mins relative to indomethacin; type: functional; conditions: time 75 min, 1.25 h
A549 = test: Antiproliferative activity against human A549 cells assessed as inhibition of cell growth after 72 hrs by MTT assay; type: functional, cell-based; conditions: A549, 72 h
Mus musculus [8] = test: Analgesic activity in albino mouse assessed as protection at 10 mg/kg, ip measured after 120 mins by hot plate test (reference value: 0 %); type: functional; conditions: 2 h
Mus musculus [9] = test: Analgesic activity in albino mouse assessed reduction in acetic acid-induced abdominal writhing by measuring writing reflex at 10 mg/kg, ip pretreated for 1 hr followed by acetic acid challenge and measured starting 5 mins post acetic acid challenge for 10 mins (reference value: 42.4 +/- 1.02); type: functional; conditions: time 75 min, 1.25 h
Pseudomonas aeruginosa = test: Antibacterial activity against Pseudomonas aeruginosa ATCC 27853 incubated for 18 hrs by agar dilution assay; type: functional
Mus musculus [10] = test: Analgesic activity in albino mouse assessed protection against acetic acid-induced abdominal writhing at 10 mg/kg, ip pretreated for 1 hr followed by acetic acid challenge and measured starting 5 mins post acetic acid challenge for 10 mins relative to control (reference value: 0 %); type: functional; conditions: time 75 min, 1.25 h
Mus musculus [11] = test: Analgesic activity in albino mouse assessed as protection at 10 mg/kg, ip measured after 60 mins by hot plate test (reference value: 0 %); type: functional; conditions: 1 h
Rattus norvegicus [12] = test: Antiinflammatory activity in Wistar rat model of carrageenan-induced paw edema assessed as reduction in thickness of paw edema at 10 mg/kg, ip pretreated for 1 hr followed by carrageenan challenge and measured after 3 hrs (reference value: 1.79 +/-0.07 mm); type: functional; conditions: time 4 hrs
Rattus norvegicus [13] = test: Anti-inflammatory activity in Wistar rat assessed as inhibition of carrageenan-induced paw edema at 10 mg/kg, ip pretreated for 1 hr followed by carrageenan challenge and measured after 4 hr relative to control (reference value: 0.00 +/-0.4 %); type: functional; conditions: time 5 hrs
Rattus norvegicus [14] = test: Antiinflammatory activity in Wistar rat model of carrageenan-induced paw edema assessed as reduction in thickness of paw edema at 10 mg/kg, ip pretreated for 1 hr followed by carrageenan challenge and measured after 24 hrs (reference value: 0.83 +/-0.08 mm); type: functional; conditions: time 25 hrs
Rattus norvegicus [15] = test: Antiinflammatory activity in Wistar rat model of carrageenan-induced paw edema assessed as reduction in thickness of paw edema at 10 mg/kg, ip pretreated for 1 hr followed by carrageenan challenge and measured after 2 hrs (reference value: 2.06 +/-0.09 mm); type: functional; conditions: time 3 hrs
[16] = Ulcerogenic activity in fasted albino mouse assessed as average severity of ulcers in gastric mucosa at 10 mg/kg, po for 3 days (reference value: 0); type: toxicity, organism-based; conditions: in vivo, 72 h, time 3 day
MCF7 = test: Antiproliferative activity against human MCF7 cells assessed as inhibition of cell growth after 72 hrs by MTT assay; type: functional, cell-based; conditions: MCF7, 72 h
Rattus norvegicus [17] = test: Anti-inflammatory activity in Wistar rat assessed as inhibition of carrageenan-induced paw edema at 10 mg/kg, ip pretreated for 1 hr followed by carrageenan challenge and measured after 1 hr relative to control (reference value: 0.00 +/-0.02 %); type: functional; conditions: time 2 hrs
Mus musculus [18] = test: Analgesic activity in albino mouse assessed as forepaw licking/jumping latency time at 10 mg/kg, ip measured after 90 mins by hot plate test (reference value: 2.72 +/- 0.01 sec); type: functional; conditions: 1.5 h
Candida albicans = test: Antifungal activity against Candida albicans incubated for 18 to 24 hrs by CLSI method; type: functional; conditions: time 18-24 hrs
Rattus norvegicus [19] = test: Anti-inflammatory activity in Wistar rat assessed as inhibition of carrageenan-induced paw edema at 10 mg/kg, ip pretreated for 1 hr followed by carrageenan challenge and measured after 24 hr relative to control (reference value: 0.00 +/-0.3 %); type: functional; conditions: time 25 hrs
Rattus norvegicus [20] = test: Antiinflammatory activity in Wistar rat model of carrageenan-induced paw edema assessed as reduction in thickness of paw edema at 10 mg/kg, ip pretreated for 1 hr followed by carrageenan challenge and measured after 4 hrs (reference value: 1.40 +/-0.10 mm); type: functional; conditions: time 5 hrs
[21] = Ulcerogenic activity in fasted albino mouse assessed as average number of ulcers in gastric mucosa at 10 mg/kg, po for 3 days (reference value: 0); type: toxicity, organism-based; conditions: in vivo, 72 h, time 3 day
Peritoneal macrophage [22] = test: Antiinflammatory activity in […] mouse Peritoneal macrophages assessed as inhibition of LPS-induced NO production at 10 uM preincubated for 1 hr followed by LPS stimulation measured after 24 hrs by Griess method relative to control (reference value: 0.0 %); type: functional; design: scale not given: the % may be the effect or the level left; conditions: time 25 hrs
Mus musculus [23] = test: Analgesic activity in albino mouse assessed as forepaw licking/jumping latency time at 10 mg/kg, ip measured after 120 mins by hot plate test (reference value: 2.62 +/- 0.06 sec); type: functional; conditions: 2 h
Mus musculus [24] = test: Analgesic activity in albino mouse assessed as protection at 10 mg/kg, ip measured after 90 mins by hot plate test (reference value: 0 %); type: functional; conditions: 1.5 h
Staphylococcus aureus = test: Antibacterial activity against Staphylococcus aureus ATCC 25923 incubated for 18 hrs by agar dilution method; type: functional
Mus musculus [25] = test: Analgesic activity in albino mouse assessed as forepaw licking/jumping latency time at 10 mg/kg, ip measured after 60 mins by hot plate test (reference value: 3.42 +/- 0.03 sec); type: functional; conditions: 1 h
Peritoneal macrophage [26] = test: Antiinflammatory activity in […] mouse Peritoneal macrophages assessed as reduction in LPS-induced NO production by measuring reduction in stimulation index at 10 uM preincubated for 1 hr followed by LPS stimulation measured after 24 hrs by Griess method (reference value: 27.31 +/- 2.56 uM); type: functional; conditions: time 25 hrs
Salmonella typhimurium = test: Antibacterial activity against Salmonella typhimurium ATCC 19430 incubated for 18 hrs by agar dilution assay; type: functional, Salmonella enterica subsp. enterica serovar Typhimurium; conditions: Salmonella enterica
PC-3 = test: Antiproliferative activity against human PC3 cells assessed as inhibition of cell growth after 72 hrs by MTT assay; type: functional, cell-based; conditions: PC-3, 72 h
[27] = Ulcerogenic activity in fasted albino mouse assessed as ulcer index in gastric mucosa at 10 mg/kg, po for 3 days (reference value: 0); type: toxicity, organism-based; conditions: in vivo, 72 h, time 3 day
Mus musculus [28] = test: Analgesic activity in albino mouse assessed as protection at 10 mg/kg, ip measured after 30 mins by hot plate test (reference value: 0 %); type: functional; conditions: 0.5 h
Mus musculus [29] = test: Analgesic activity in albino mouse assessed as forepaw licking/jumping latency time at 10 mg/kg, ip measured after 30 mins by hot plate test (reference value: 5.02 +/- 0.09 sec); type: functional; conditions: 0.5 h
Streptococcus pyogenes = test: Antibacterial activity against Streptococcus pyogenes ATCC 19615 incubated for 18 hrs by agar dilution method; type: functional
Mus musculus [30] = test: Analgesic activity in albino mouse assessed as protection at 10 mg/kg, ip measured after 120 mins by hot plate test relative to indomethacin; type: functional; conditions: 2 h
Rattus norvegicus [31] = test: Antiinflammatory activity in Wistar rat model of carrageenan-induced paw edema assessed as reduction in thickness of paw edema at 10 mg/kg, ip pretreated for 1 hr followed by carrageenan challenge and measured after 1 hr (reference value: 2.41 +/-0.05 mm); type: functional; conditions: time 1 hr after carrageenan
[32] = Ulcerogenic activity in fasted albino mouse assessed as incidence of gastric ulceration at 10 mg/kg, po for 3 days (reference value: 0 %); type: toxicity, organism-based; conditions: in vivo, 72 h, time 3 day

Row | Structure (SMILES) | viability at 10 µM (Splenocyte [1]) [%] | Activity_index (Splenocyte [2]) | Activity [3] | inhibition in vivo at 10 mg/kg (Rattus norvegicus [4]) [%] | inhibition in vivo at 10 mg/kg (Rattus norvegicus [5]) [%] | inhibition in vivo at 10 mg/kg (Rattus norvegicus [6]) [%] | Activity (Mus musculus [7]) [%] | IC50 (A549) [µM] | Activity (Mus musculus [8]) [%] | Activity (Mus musculus [9]) | MIC (Pseudomonas aeruginosa) | Activity (Mus musculus [10]) [%] | Activity (Mus musculus [11]) [%] | Activity (Rattus norvegicus [12]) [mm] | inhibition in vivo at 10 mg/kg (Rattus norvegicus [13]) [%] | Activity (Rattus norvegicus [14]) [mm] | Activity (Rattus norvegicus [15]) [mm] | Activity [16] | IC50 (MCF7) [µM] | inhibition in vivo at 10 mg/kg (Rattus norvegicus [17]) [%] | other results
1 | COc1cc(/C=C/C(=O)/C=C(O)/C=C/c2ccc(OC(=O)[C@H](N)CCSC)c(OC)c2)ccc1OC(=O)[C@H](N)CCSC.Cl.Cl | 120 | 1.01 | Non-Toxic | 65 | 113 | 54 | 86.5 | 20 | 22.9 | 19.8 | 1 µg/mL and 1.42 µM | 53.3 | 39.8 | 0.62 | 98 | 0.54 | 0.95 | 0 | 10.2 | 59 | Time (Mus musculus [18]): 3.36 s; MIC (Candida albicans): 1 µg/mL and 1.42 µM; inhibition in vivo at 10 mg/kg (Rattus norvegicus [19]): 35%; Activity (Rattus norvegicus [20]): 0.03 mm; Activity [21]: 0; Activity (Peritoneal macrophage [22]): 49.57%; Time (Mus musculus [23]): 3.22 s; Activity (Mus musculus [24]): 23.5%; MIC (Staphylococcus aureus): 0.125 µg/mL and 0.178 µM; Time (Mus musculus [25]): 4.78 s; Activity (Peritoneal macrophage [26]): 13.77 µM; MIC (Salmonella typhimurium): 0.25 µg/mL and 0.355 µM; IC50 (PC-3): 41.5 µM; UI [27]: 0; Activity (Mus musculus [28]): 6.8%; Time (Mus musculus [29]): 5.36 s; MIC (Streptococcus pyogenes): 0.25 µg/mL and 0.355 µM; Activity (Mus musculus [30]): 54.5%; Activity (Rattus norvegicus [31]): 0.99 mm; Activity [32]: 0%
2 | COc1cc(/C=C/C(=O)/C=C(O)/C=C/c2ccc(OC(=O)[C@@H](N)CCSC)c(OC)c2)ccc1OC(=O)[C@@H](N)CCSC.Cl.Cl | 81.3 | 1.49 | Non-Toxic | 73 | 111 | 70 | 58.1 | 32.8 | 63.4 | 27.2 | 0.5 µg/mL and 0.711 µM | 35.8 | 46.8 | 0.49 | 97 | 0.53 | 0.62 | 0 | 11.3 | 64 | Time (Mus musculus [18]): 4.98 s; MIC (Candida albicans): 0.5 µg/mL and 0.711 µM; inhibition in vivo at 10 mg/kg (Rattus norvegicus [19]): 36%; Activity (Rattus norvegicus [20]): 0.04 mm; Activity [21]: 0; Activity (Peritoneal macrophage [22]): 37.94%; Time (Mus musculus [23]): 4.28 s; Activity (Mus musculus [24]): 83.1%; MIC (Staphylococcus aureus): 0.25 µg/mL and 0.355 µM; Time (Mus musculus [25]): 5.02 s; Activity (Peritoneal macrophage [26]): 16.95 µM; MIC (Salmonella typhimurium): 0.125 µg/mL and 0.178 µM; IC50 (PC-3): 42.6 µM; UI [27]: 0; Activity (Mus musculus [28]): 5.2%; Time (Mus musculus [29]): 5.28 s; MIC (Streptococcus pyogenes): 0.5 µg/mL and 0.711 µM; Activity (Mus musculus [30]): 151%; Activity (Rattus norvegicus [31]): 0.86 mm; Activity [32]: 0%
